# Assay results reported in ChEMBL document CHEMBL1147220, “Divinatorins A-C, new neoclerodane diterpenoids from the controlled sage Salvia divinorum” (2003).
# Active and inactive are the calls of the source. The calls are words filed in the database; no cut-off is given here.
# Key:
# Escherichia coli [1] = assay: Antibacterial activity against Escherichia coli ATCC 25922 at 100 ug/mL by microdilution method; assay type: functional, organism-based
# Staphylococcus aureus [2] = assay: Antibacterial activity against Staphylococcus aureus ATCC 29213 at 100 ug/mL by microdilution method; assay type: functional, organism-based
# Candida albicans [3] = assay: Antifungal activity against Candida albicans ATCC 90028 at 100 ug/mL by microdilution method; assay type: functional, organism-based
# Escherichia coli [4] = assay: Antibacterial activity against Escherichia coli ATCC 25922 at 100 ug/disk by disk diffusion method; assay type: functional, organism-based
# Staphylococcus aureus [5] = assay: Antibacterial activity against Staphylococcus aureus ATCC 29213 at 100 ug/disk by disk diffusion method; assay type: functional, organism-based
# Bacillus subtilis [6] = assay: Antibacterial activity against Bacillus subtilis ATCC 6633 at 100 ug/disk by disk diffusion method; assay type: functional
# Candida albicans [7] = assay: Antifungal activity against Candida albicans ATCC 90028 at 100 ug/disk by disk diffusion method; assay type: functional, organism-based
# Bacillus subtilis [8] = assay: Antibacterial activity against Bacillus subtilis ATCC 6633 at 100 ug/mL by microdilution method; assay type: functional, organism-based
# Staphylococcus aureus [9] = assay: Antibacterial activity against Staphylococcus aureus ATCC 29213 by microdilution method; assay type: functional
# Bacillus subtilis [10] = assay: Antibacterial activity against Bacillus subtilis ATCC 6633 by microdilution method; assay type: functional
MIC (Staphylococcus aureus [9]),MIC (Bacillus subtilis [10]),SMILES,Activity (Escherichia coli [1]),Activity (Staphylococcus aureus [2]),Activity (Candida albicans [3]),Activity (Escherichia coli [4]),Activity (Staphylococcus aureus [5]),Activity (Bacillus subtilis [6]),Activity (Candida albicans [7]),Activity (Bacillus subtilis [8]),zone of inhibition at 100 µg/disc (Bacillus subtilis [6]; read-out: IZ)
,,COC(=O)C1=CC[C@H](O)[C@@H]2[C@@](C)(CCc3ccoc3)[C@H](CO)CC[C@@]12C,inactive,inactive,inactive,inactive,inactive,inactive,inactive,inactive,
25 µg/mL,12.5 µg/mL,C[C@H]1CC[C@]2(C)C(C(=O)O)=CCC[C@H]2[C@]1(C)CCc1ccoc1,,,,,,,,,10 mm
,,CC(=O)OC[C@@H]1CC[C@@]2(C)C(C(=O)O)=CCC[C@@H]2[C@@]1(C)CCc1ccoc1,inactive,inactive,inactive,inactive,inactive,inactive,inactive,inactive,
,0.78 µg/mL,C[C@@H]1CC[C@@]2(C)C(C(=O)O)=CCC[C@@H]2[C@@]1(C)CCc1ccoc1,,,,,,,,,
,,C[C@@H]1CC[C@@]2(C)C(C(=O)O)=CC[C@H](O)[C@@H]2[C@@]1(C)CCc1ccoc1,inactive,inactive,inactive,inactive,inactive,inactive,inactive,inactive,
